Experiment [1] deals with DPP1 in HL-60 cells (Homo sapiens, UniProt P53634). In words: DPP1 Cell IC50 assay. Format: cell-based. More on the design: host or cells: HL-60 cells. As to conditions: 60 min pre-incubation, H-Gly-Phe-AFC substrate, average of n runs, read-out: Avg. IC50 (DPP1 Cell IC50 value ranges). The protocol:
Example 99. DPP1 Cell IC50 assay
HL-60 cells (ATCC; Manassas, VA) were maintained in RPMI-1640 supplemented with 20% heat-inactivated FBS and 1× Antibiotic Antimycotic (Cytiva; Marlborough, MA). Media was changed every three to four days and cells were not allowed to exceed 1×10^6 cells per mL. Prior to assay, cells were collected by centrifugation at 500 rcf for 3 minutes, resuspended in PBS and counted. Cells were diluted in PBS to a concentration of 5×10^5 live cells per mL and transferred to black 96-well plates for assay, 60 μL per well. Test articles were diluted in PBS plus 0.5% DMSO, and 20 μL was added to each assay well. Compound was allowed to pre-incubate with cells with gentle shaking at 100 rpm for 60 minutes at 37° C. in a cell culture incubator maintained at 5% CO2, after which 20 μL of 500 μM H-Gly-Phe-AFC substrate (MP Biomedicals; Solon, OH) was added to each well. Plates were returned to the incubator with shaking at 100 rpm for 30 minutes, after which fluorescence was measured at Excitation/Emission 400/505 nm. % Inhibition was calculated from RFU values compared to control cell wells that received only PBS plus 0.5% DMSO. IC50 values for each compound were calculated via the XLFit (IDBS Version 5.3.1.3) Add-On to Microsoft Excel using the four parameter fit equation y=(A+((B−A)/(1+((C/x)^D)))), which appears as equation number 205 (4 Parameter Logistic Model or Sigmoidal Dose-Response Model) in XLFit. IC50 was defined as the compound concentration at which 50% of enzyme activity was inhibited when compared to the no-compound control.

The target of experiment [2] is human DPP1 enzyme (Homo sapiens, UniProt P53634). Nature of the experiment: Human DPP1 Enzyme IC50 Assay. Format: biochemical. As to conditions: activated recombinant human DPP1, 400 μM H-Gly-Arg-AMC, 10 minutes pre-incubation at 37° C., pH 6.0; average of n runs; read-out: Avg. IC50 (Human DPP1 enzyme IC50 value ranges). More on the design: was first proteolytically processed into its mature form using recombinant human cathepsin L; purchased R&D Systems. The protocol:
Example 97. Human DPP1 Enzyme IC50 Assay
Recombinant human DPP1 enzyme (R&D Systems; Minneapolis, MN) was first proteolytically processed into its mature form using recombinant human cathepsin L (R&D Systems) in a buffer consisting of 20 mM citric acid pH 4.5, 150 mM NaCl, 1 mM EDTA and 10 mM DTT. Test articles were applied to activated human DPP1 enzyme in Assay Buffer (25 mM MES pH 6.0, 50 mM NaCl, 5 mM DTT) in a total reaction volume of 125 μL. 25 μL of compound in Assay Buffer plus 5% DMSO was first added to 50 μL of activated human DPP1 enzyme at a concentration of 1 ng/μL and allowed to pre-incubate for 10 minutes at 37° C. after which 50 μL of 1000 μM H-Gly-Arg-AMC substrate (Bachem; St. Torrance, CA) was added, giving final substrate concentration of 400 μM and a final DMSO concentration of 1%. Substrate cleavage was measured for 90 minutes at 37° C., with fluorescence at Excitation/Emission 350/450 nm measured every 5 minutes. DPP1 concentration was interpolated based on its activity relative to a standard curve of activated human recombinant DPP1 enzyme. IC50 values for each compound were calculated via the XLFit (IDBS Version 5.3.1.3) Add-On to Microsoft Excel using the four parameter fit equation y={A+[(B−A)]/[1+((C/x)^D)]}, which appears as equation number 205 (4 Parameter Logistic Model or Sigmoidal Dose-Response Model) in XLFit. Default constraints were used for each Parameter. IC50 was defined as the compound concentration at which 50% of enzyme activity was inhibited when compared to the no-compound control.

Bounds are passed on as bounds.

In general, IC50 refers to the concentration at which inhibition is half-maximal.

DPP1 in HL-60 cells, sequence (P53634 25-463): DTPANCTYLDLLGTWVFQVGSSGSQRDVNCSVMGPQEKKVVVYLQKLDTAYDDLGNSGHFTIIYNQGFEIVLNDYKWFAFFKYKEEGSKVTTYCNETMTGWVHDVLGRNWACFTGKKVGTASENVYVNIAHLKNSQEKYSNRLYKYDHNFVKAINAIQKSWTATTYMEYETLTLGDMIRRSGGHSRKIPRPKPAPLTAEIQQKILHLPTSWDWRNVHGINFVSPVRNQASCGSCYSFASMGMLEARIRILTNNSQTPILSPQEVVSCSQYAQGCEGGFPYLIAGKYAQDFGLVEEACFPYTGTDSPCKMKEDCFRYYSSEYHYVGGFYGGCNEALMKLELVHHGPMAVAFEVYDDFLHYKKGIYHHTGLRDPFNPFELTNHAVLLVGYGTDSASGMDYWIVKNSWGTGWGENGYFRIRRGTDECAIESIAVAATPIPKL
human DPP1 enzyme, sequence (P53634 25-134 limits assumed): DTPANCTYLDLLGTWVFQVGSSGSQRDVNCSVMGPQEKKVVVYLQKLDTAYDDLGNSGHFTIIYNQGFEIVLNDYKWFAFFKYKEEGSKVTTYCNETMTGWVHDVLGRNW
human DPP1 enzyme, sequence (P53634 231-394 limits assumed): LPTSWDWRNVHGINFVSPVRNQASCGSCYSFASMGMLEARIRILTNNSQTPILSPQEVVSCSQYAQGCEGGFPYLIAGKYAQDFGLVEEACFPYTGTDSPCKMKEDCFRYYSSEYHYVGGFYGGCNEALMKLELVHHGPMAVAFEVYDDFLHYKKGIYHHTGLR
human DPP1 enzyme, sequence (P53634 395-463 limits assumed): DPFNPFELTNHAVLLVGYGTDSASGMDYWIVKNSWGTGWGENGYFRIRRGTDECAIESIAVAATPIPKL

Consider `CO[C@@H]1CCNC[C@@H](C(=O)NC(C#N)Cc2cnc(-c3ccc4c(F)nn(C)c4c3)s2)OC1` (mixture of isomers) [Compound A38, (2S,7R)—N-{1-cyano-2-[2-(3-fluoro-1-methylindazol-6-yl)-1,3-thiazol-5-yl]ethyl}-7-methoxy-1,4-oxazocane-2-carboxamide], for which the IC50 in experiment [1] lay in the range of 1 to 2.5 nM; in experiment [2], 5 to 15 nM.
In the same order, the values of `N#CC(Cc1cc2c(cc1F)-c1cc(C3COC3)c(F)cc1CO2)NC(=O)[C@@H]1CNCCCCO1` (mixture of isomers) [Compound B10, (2S)—N-{1-cyano-2-[2,8-difluoro-9-(oxetan-3-yl)-6H-benzo[c]chromen-3-yl]ethyl}-1,4-oxazocane-2-carboxamide] are 1 to 2.5 nM and 5 to 15 nM.
On the same counts, the results for `CO[C@@H]1CCNC[C@@H](C(=O)NC(C#N)Cc2cc3c(cc2F)-c2ccc(C#N)cc2CO3)OC1` (mixture of isomers) [Compound B11, (2S,7R)—N-(1-cyano-2-{8-cyano-2-fluoro-6H-benzo[c]chromen-3-yl}ethyl)-7-methoxy-1,4-oxazocane-2-carboxamide] are 1 to 2.5 nM and less than 5 nM.
In the same order, the values of `CO[C@H]1CCO[C@H](C(=O)NC(C#N)Cc2cc3c(cc2F)-c2cc(C4COC4)c(F)cc2CO3)CNC1` (mixture of isomers) [Compound B15, (2S,6S)—N-{1-cyano-2-[2,8-difluoro-9-(oxetan-3-yl)-6H-benzo[c]chromen-3-yl]ethyl}-6-methoxy-1,4-oxazocane-2-carboxamide] are 1 to 2.5 nM and less than 5 nM.
As for `Cn1c(=O)oc2ccc3c(c21)COc1cc(CC(C#N)NC(=O)[C@@H]2CNCCCO2)c(F)cc1-3` (mixture of isomers) [Compound C2, (2S)—N-(1-cyano-2-(8-fluoro-3-methyl-2-oxo-3,4-dihydro-2H-benzo[3,4]isochromeno[8,7-d]oxazol-7-yl)ethyl)-1,4-oxazepane-2-carboxamide], the values for the IC50 in experiment [1] and in experiment [2] were more than 2.5 nM and more than 15 nM, respectively.
As for `CN1CCC2(CCc3cc4c(cc32)-c2cc(F)c(CC(C#N)NC(=O)[C@@H]3CNCCCO3)cc2OC4)CC1` (mixture of isomers) [Compound C3, (2S)—N-(1-cyano-2-{2-fluoro-1′-methyl-8,9-dihydro-6H-spiro[indeno[5,6-c]chromene-10,4′-piperidin]-3-yl}ethyl)-1,4-oxazepane-2-carboxamide], the IC50 in experiment [1] was more than 2.5 nM; in experiment [2] it was less than 5 nM.
Consider `Cc1cn2cc(-c3cc4sc(C[C@@H](C#N)NC(=O)[C@@H]5CNCCCCO5)cc4s3)cc2c(C)n1` (single isomer, unassigned) [Compound A30], for which the concentration for half-maximal inhibition (IC50) is more than 2.5 nM in experiment [1] and more than 15 nM in experiment [2].
Consider `Cc1cn2cc(-c3cc4sc(C[C@H](C#N)NC(=O)[C@@H]5CNCCCCO5)cc4s3)cc2c(C)n1` (single isomer, unassigned) [Compound A31], for which the concentration for half-maximal inhibition (IC50) is more than 2.5 nM in experiment [1] and more than 15 nM in experiment [2].
In the same order, the values of `CO[C@H]1CCO[C@H](C(=O)N[C@H](C#N)Cc2cc3cc(-c4cc5c(C)nc(C)cn5c4)ccc3s2)CNC1` (single isomer, unassigned) [Compound A45] are more than 2.5 nM and more than 15 nM.
As to `CO[C@H]1CCO[C@H](C(=O)NC(C#N)Cc2cc3cc(-c4cc5c(C)nc(C)cn5c4)ccc3s2)CNC1` (single isomer, unassigned) [Compound A46], the figures for the IC50 in experiment [1] and in experiment [2] were more than 2.5 nM and more than 15 nM, respectively.
On the same counts, the results for `CO[C@@H]1CCNC[C@@H](C(=O)N[C@H](C#N)Cc2cc3cc(-c4cc5c(C)nc(C)cn5c4)ccc3s2)OC1` (single isomer, unassigned) [Compound A51] are 1 to 2.5 nM and 5 to 15 nM.
In the same order, the values of `CO[C@@H]1CCNC[C@@H](C(=O)NC(C#N)Cc2cc3cc(-c4cc5c(C)nc(C)cn5c4)ccc3s2)OC1` (single isomer, unassigned) [Compound A52] are more than 2.5 nM and more than 15 nM.
On the same counts, the results for `CO[C@H]1CCO[C@H](C(=O)N[C@H](C#N)Cc2cc3c(cc2F)-c2ccc(C#N)cc2CO3)CNC1` (single isomer, unassigned) [Compound B13] are less than 1 nM and less than 5 nM.
Consider `CO[C@H]1CCO[C@H](C(=O)NC(C#N)Cc2cc3c(cc2F)-c2ccc(C#N)cc2CO3)CNC1` (single isomer, unassigned) [Compound B14], for which the IC50 is more than 2.5 nM in experiment [1] and more than 15 nM in experiment [2].
In the same order, the values of `Cn1c(=O)oc2cc3c(cc21)-c1cc(F)c(CC(C#N)NC(=O)[C@@H]2CNCCCCO2)cc1OC3` (single isomer, unassigned) [Compound C6] are more than 2.5 nM and more than 15 nM.
For the molecule `COC1CNC[C@@H](C(=O)N[C@H](C#N)Cc2ccc(-c3ccc4nnn(C)c4c3)cc2)OC1` (single isomer, unassigned) [Compound H12-A], the IC50 in experiment [1] was more than 2.5 nM; in experiment [2] it was more than 15 nM.
In the same order, the values of `N#C[C@H](Cc1ccc(C23CCC(C#N)(CC2)CC3)cc1)NC(=O)[C@@H]1CNCCCO1` [Compound 4] are more than 2.5 nM and more than 15 nM.
As to `CN1CCC2(CC1)C(=O)Nc1ccc(-c3ccc(C[C@@H](C#N)NC(=O)[C@@H]4CNCCCO4)cc3)cc12` [Compound 13, (2S)—N-[(1S)-1-cyano-2-(4-{1′-methyl-2-oxo-1H-spiro[indole-3,4′-piperidin]-5-yl}phenyl)ethyl]-1,4-oxazepane-2-carboxamide], the results for the IC50 in experiment [1] and in experiment [2] were more than 2.5 nM and more than 15 nM, respectively.
In the same order, the values of `N#C[C@H](Cc1ccc(-c2ccc3c(c2)C2(CCNCC2)C(=O)C3)cc1)NC(=O)[C@@H]1CNCCCO1` [Compound 22, (2S)—N-[(1S)-1-cyano-2-(4-{2-oxo-3H-spiro[indene-1,4′-piperidin]-6-yl}phenyl)ethyl]-1,4-oxazepane-2-carboxamide] are more than 2.5 nM and 5 to 15 nM.
On the same counts, the results for `CN1C(=O)C2(CCNCC2)c2cc(-c3ccc(C[C@@H](C#N)NC(=O)[C@@H]4CNCCCO4)cc3)ccc21` [Compound 23, (2S)—N-[(1S)-1-cyano-2-(4-{1-methyl-2-oxospiro[indole-3,4′-piperidin]-5-yl}phenyl)ethyl]-1,4-oxazepane-2-carboxamide] are more than 2.5 nM and 5 to 15 nM.
In the same order, the values of `N#C[C@H](Cc1ccc(-c2ccc3c(c2)C2(CCNC2)OC3=O)cc1)NC(=O)[C@@H]1CNCCCO1` (stereo partly drawn) [Compound 25, (2S)—N-[(1S)-1-cyano-2-(4-{3-oxospiro[2-benzofuran-1,3′-pyrrolidin]-6-yl}phenyl)ethyl]-1,4-oxazepane-2-carboxamide] are more than 2.5 nM and more than 15 nM.
`N#C[C@H](Cc1ccc(-c2ccc3c(c2)C2(CN(C4COC4)C2)OC3=O)cc1)NC(=O)[C@@H]1CNCCCO1` [Compound 27, (2S)—N-[(1S)-1-cyano-2-{4-[1-(oxetan-3-yl)-3′-oxospiro[azetidine-3,1′-[2]benzofuran]-6′-yl]phenyl}ethyl]-1,4-oxazepane-2-carboxamide]: the IC50 in experiment [1] was more than 2.5 nM; in experiment [2], more than 15 nM.
In the same order, the values of `CN1C(=O)C2(CCN(C3COC3)CC2)c2cc(-c3ccc(C[C@@H](C#N)NC(=O)[C@@H]4CNCCCO4)cc3)ccc21` [Compound 29, (2S)—N-[(1S)-1-cyano-2-{4-[1-methyl-1′-(oxetan-3-yl)-2-oxospiro[indole-3,4′-piperidin]-5-yl]phenyl}ethyl]-1,4-oxazepane-2-carboxamide] are more than 2.5 nM and more than 15 nM.

The values are drawn from US20260008760A1, “DIPEPTIDYL PEPTIDASE 1 INHIBITORS AND USES THEREOF” (Insmed Incorporated, priority 2024, published 2026).
